# Assay results taken from US12605539B2, “Methods and systems for delivering drugs through skin of a body” (PASSPORT TECHNOLOGIES, INC., priority 2019, dated 2026).
# Columns and labels:
# Type in all cases: in vivo, hairless Guinea pigs
# [1] = Blood concentration of polysaccharide (Fondaparinux) after microporation patch (FIG. 13); conditions: 4 ms pulses
# Procedure: The patch 102 used for FIG. 13 graphs 1300 and 1320 has a nonwoven matrix, a thickness of 180 μm, weight of 18 g/m^2, WHC of 17 mg/cm^2, a drug of 0.01 mg/cm^2, and a total solids level of 6.1 mg/cm^2. An energy pulse of 6.3 mJ and 5.2 mJ per filament to create between about 200 and 400 pathways via microporation having a 1 cm^2 treated area of between about 5 and 10% per square centimeter of skin, respectively.
# (§1) The graph 1300 includes the concentration of the polysacharride (for example, Fondaparinux) in micrograms/milliliter (μg/mL) along the y-axis and time in hours (hr) along the x-axis. […] The line 1302 represents the patch 102 having a formulation of 2.5 mg of the polysacharride applied with the patch 102 and microporation parameters described above. The line 1304 represents the patch 102 having a formulation of 5.0 mg of the polysacharride applied with the patch 102 and microporation parameters described above. The line 1306 represents the patch 102 having a formulation of 7.5 mg of the polysacharride applied with the patch 102 and microporation parameters described above. Each of the three lines 1302, 1304, and 1306 follow the same general trend of increasing to a peak concentration value and then gradually decreasing in concentration. The line 1306 has the highest concentration values, followed by line 1304 and then line 1302.
# as §1, with “1320” for “1300”, “1322” for “1302”, “1324” for “1304”, “1326” for “1306”, “1322, 1324,” for “1302, 1304,”, “1322.” for “1302.”
# [2] = Blood concentration of peptide (Teriparatide) after microporation patch (FIG. 17); conditions: hairless, guinea pig, topical, API 0.2 mg/cm^2 + 0.5 mg sucrose; for bioavailability: read-out: bioavailability (BA); for Cmax: read-out: maximum concentration (Cmax)
# Procedure: Table 15 identifies two groups (group 4 and group 6) that both use stainless steel filaments 200 and create 200 and 400 pathways, respectively, having applied an energy pulse of 9.3 mJ per filament with a treated area of about 10% per square centimeter of skin for 0.5 cm2 and 1.0 cm^2, respectively. The patch 102 used for the administration of the peptide shown in graph 1700 has a thickness of 38 μm, a weight of 12 g/m^2, a WHC of 4 mg/cm^2, an API of 0.2 mg/cm^2, and a total solid weight of about 0.7 mg/cm^2.
# The graph 1700 includes the concentration of the peptide in ng/mL along the y-axis and time in hours (hr) along the x-axis. […] The line 1702 represents the patch 102 and microporation parameters of group 4 described above. The line 1704 represents the patch 102 and microporation parameters of group 6 described above.
# [3] = Blood concentration of Somatropin after microporation patch (FIG. 18); conditions: patch 0.5 mg, 1.0 cm^2
# Description: The microporation occurs according to the parameters in Table 17. […] 200 Wide filaments are double the width of standard one (2×50 micrometers) so the energy pulse of 5.2 mJ and 9.3 mJ per filament, thus providing the same current density/flux, and similar power used.
# The graph 1800 includes the concentration of the peptide in ng/mL along the y-axis and time in hours (hr) along the x-axis. […] The line 1802 represents the group 1 parameters from Tables 17 and 18. The line 1804 represents the group 2 parameters from Tables 17 and 18. The line 1806 represents the group 3 parameters from Tables 17 and 18. The line 1808 represents the group 4 parameters from Tables 17 and 18. Each of the four lines 1802, 1804, 1806, and 1808 follow the same general trend of increasing to a peak concentration value and then gradually decreasing in concentration. The line 1808 generally has the highest concentration values, followed by line 1802, then line 1804, and finally line 1806. It is noted that the line 1804 exceeds line 1806 from between about 2 hours to about 3 hours.
# [4] = 0.2 mg/cm^2, group 4: 200 pores, 0.5 cm^2, 9.3 mJ/filament
# [5] = 0.2 mg/cm^2, group 6: 400 pores, 1.0 cm^2, 9.3 mJ/filament
# [6] = group 1: 400 pores, 5.7 mJ/filament (Table 17)
# [7] = group 2: 400 pores, 9.3 mJ/filament
# [8] = group 3: 200 wide pores, 5.2 mJ/filament
# [9] = group 4: 200 wide pores, 9.3 mJ/filament
molecule,measurement,setting,value
CO[C@H]1O[C@H](COS(=O)(=O)O)[C@@H](O[C@@H]2O[C@@H](C(=O)O)[C@@H](O[C@H]3O[C@H](COS(=O)(=O)O)[C@@H](O[C@@H]4O[C@H](C(=O)O)[C@@H](O[C@H]5O[C@H](COS(=O)(=O)O)[C@@H](O)[C@H](O)[C@H]5NS(=O)(=O)O)[C@H](O)[C@H]4O)[C@H](OS(=O)(=O)O)[C@H]3NS(=O)(=O)O)[C@H](O)[C@H]2OS(=O)(=O)O)[C@H](O)[C@H]1NS(=O)(=O)O [Fondaparinux],area under the curve (AUC),"[1]; patch 2.5 mg, 200 pathways",72800 ng·h/mL
same,bioavailability,"[1]; patch 2.5 mg, 200 pathways",170.9%
same,maximum concentration,"[1]; patch 2.5 mg, 200 pathways",5.1 µg/mL
same,AUC,"[1]; patch 2.5 mg, 400 pathways",97300 ng·h/mL
same,bioavailability,"[1]; patch 2.5 mg, 400 pathways",228.5%
same,maximum concentration,"[1]; patch 2.5 mg, 400 pathways",8.0 µg/mL
same,AUC,"[1]; patch 5.0 mg, 200 pathways",100900 ng·h/mL
same,bioavailability,"[1]; patch 5.0 mg, 200 pathways",118.4%
same,maximum concentration,"[1]; patch 5.0 mg, 200 pathways",6.7 µg/mL
same,AUC,"[1]; patch 5.0 mg, 400 pathways",125200 ng·h/mL
same,bioavailability,"[1]; patch 5.0 mg, 400 pathways",146.9%
same,maximum concentration,"[1]; patch 5.0 mg, 400 pathways",10.5 µg/mL
same,AUC,"[1]; patch 7.5 mg, 200 pathways",152300 ng·h/mL
same,bioavailability,"[1]; patch 7.5 mg, 200 pathways",119.2%
same,maximum concentration,"[1]; patch 7.5 mg, 200 pathways",9.1 µg/mL
same,AUC,"[1]; patch 7.5 mg, 400 pathways",145800 ng·h/mL
same,bioavailability,"[1]; patch 7.5 mg, 400 pathways",114.1%
same,maximum concentration,"[1]; patch 7.5 mg, 400 pathways",11.5 µg/mL
CC[C@H](C)[C@H](NC(=O)[C@H](CCC(=O)O)NC(=O)[C@H](CO)NC(=O)[C@@H](NC(=O)[C@@H](N)CO)C(C)C)C(=O)N[C@@H](CCC(N)=O)C(=O)N[C@@H](CC(C)C)C(=O)N[C@@H](CCSC)C(=O)N[C@@H](Cc1cnc[nH]1)C(=O)N[C@@H](CC(N)=O)C(=O)N[C@@H](CC(C)C)C(=O)NCC(=O)N[C@@H](CCCCN)C(=O)N[C@@H](Cc1cnc[nH]1)C(=O)N[C@@H](CC(C)C)C(=O)N[C@@H](CC(N)=O)C(=O)N[C@@H](CO)C(=O)N[C@@H](CCSC)C(=O)N[C@@H](CCC(=O)O)C(=O)N[C@@H](CCCN=C(N)N)C(=O)N[C@H](C(=O)N[C@@H](CCC(=O)O)C(=O)N[C@@H](Cc1c[nH]c2ccccc12)C(=O)N[C@@H](CC(C)C)C(=O)N[C@@H](CCCN=C(N)N)C(=O)N[C@@H](CCCCN)C(=O)N[C@@H](CCCCN)C(=O)N[C@@H](CC(C)C)C(=O)N[C@@H](CCC(N)=O)C(=O)N[C@@H](CC(=O)O)C(=O)N[C@H](C(=O)N[C@@H](Cc1cnc[nH]1)C(=O)N[C@@H](CC(N)=O)C(=O)N[C@@H](Cc1ccccc1)C(=O)O)C(C)C)C(C)C [Teriparatide],AUC,[2]; [4],3260 ng·h/mL
same,bioavailability,[2]; [4],37.4%
same,Cmax,[2]; [4],9.16 ng/mL
same,AUC,[2]; [5],2210 ng·h/mL
same,bioavailability,[2]; [5],25.4%
same,Cmax,[2]; [5],11.2 ng/mL
Somatropin,AUC,[3]; [6],87.1 ng·h/mL
same,Cmax,[3]; [6],20.4 ng/mL
same,Tmax,[3]; [6],1.3 h
same,bioavailability (BA),[3]; [6],35.8%
same,AUC,[3]; [7],90.1 ng·h/mL
same,Cmax,[3]; [7],16.1 ng/mL
same,Tmax,[3]; [7],1.8 h
same,bioavailability (BA),[3]; [7],37.0%
same,AUC,[3]; [8],78.1 ng·h/mL
same,Cmax,[3]; [8],16.4 ng/mL
same,Tmax,[3]; [8],1.5 h
same,bioavailability (BA),[3]; [8],32.1%
same,AUC,[3]; [9],94.9 ng·h/mL
same,Cmax,[3]; [9],22.6 ng/mL
same,Tmax,[3]; [9],1.5 h
same,bioavailability (BA),[3]; [9],39.0%
